The values below come from patent US10016400B2, “Composition including rapamycin as active ingredient for preventing or treating hearing loss” (AJOU UNIVERSITY INDUSTRY—ACADEMIC COOPERATION FOUNDATION, priority 2014, dated 2018).

For series [1] the following is noted: in vivo; cited from earlier work.
In series [2] the test system is HEI-OC1 cells. The series is described as follows: RPM effects on apoptosis, MTS assay. The format is cell-based. On the procedure:
(§1) An auditory cell line, e.g., House-Ear Institute-organ of Corti 1 (HEI-OC1), that expresses auditory genes was used. HEI-OC1 cells were cultured under conditions of a temperature of 33° C. and a CO2 (10%) by adding 10% fetal bovine serum (FBS) and 25 U/ml interferon-gamma to a Dulbecco's modified Eagle's Medium (DMEM) including high concentrations of glutamine. At about 90% confluence of the cultured cells on a bottom surface of a plate, the cell density was maintained within an appropriate range by performing serial subcultures using 2.5% Trypsin-EDTA.
Here, RPM was used as an inducer of autophagy and chloroquine (CQ) was used as an inhibitor of autophagy in terms of pretreatment and combination treatment.
For orientation: Formazan colour is commonly taken as a measure of viable cells.

The test system of series [3] is auditory outer and inner hair cells. In words: Autophagy in cochlear hair cells, immunohistochemistry with LC3 antibodies. The series is classed as in vivo. Particulars: GM treatment, rat cochleae. The method, then: A total of 24 rats were classified into one group of 12 rats treated with 50 pM of rapamycin (RRM) and another group of 12 rats treated with 100 pM of RPM. […] To allow RPM to be well absorbed inside the tympanum, the rats were placed in a lateral decubitus position and stabilized. Meanwhile, rats of which right ears were treated with physiological saline were classified as a control group.
To observe autophagy in the auditory outer hair cells, the cochleae of the rats of Example 1 were subjected to immunohistochemistry using microtubule-associated LC3 (Microtubule-associated protein 1A/1B-light chain 3) antibodies.

The test system of series [4] is HEI-OC1 cells. The series is described as follows: Autophagy in auditory cell line (LC3 staining, western blot, real-time quantitative PCR). The format is cell-based. Particulars: HEI-OC1 cells treated with GM. The method, then: as §1
To observe autophagy in the GM-treated auditory cells, the HEI-OC1 cells, which are the auditory cell line of Example 1-2, were subjected to immunohistochemistry using LC3 antibody, thereby staining autophagosomes, the expression of autophagy-related proteins, e.g., LC3, Beclin-1, and RAS-related GTP-binding proteins (Rab7) was confirmed according to the western blot, and the processes of autophagy were analyzed through real-time quantitative PCR.
(In general: In western blotting, separated proteins are transferred to a membrane and probed.)

Regarding `CO[C@H]1C[C@@H]2CC[C@@H](C)[C@@](O)(O2)C(=O)C(=O)N2CCCC[C@H]2C(=O)O[C@H]([C@H](C)C[C@@H]2CC[C@@H](O)[C@H](OC)C2)CC(=O)[C@H](C)/C=C(\C)[C@@H](O)[C@@H](OC)C(=O)[C@H](C)C[C@H](C)/C=C/C=C/C=C/1C` [RPM, rapamycin], in series [1], the “LD50 value (dose lethal to 50% of the population)” value is listed as “at least 2 g/kg”.
Take `CCN(CC)CCCC(C)Nc1ccnc2cc(Cl)ccc12` (centres unmarked) [CQ, chloroquine]: the “apoptosis with GM and autophagy inhibitor” value in series [2] (5 mM GM with 25 μM CQ) is “more likely to be undergone the apoptosis”.
For the compound gentamicin [GM], in series [3], the “autophagosomes having a double membrane in auditory outer and inner hair cells” value is on record as “increase in autophagosomes”. For the same compound, the “HEI-OC1 cells undergone apoptosis” value in series [2] (5 mM of GM for 48 hours) was “about 25%”. The number of autophagosomes result in series [4] is listed as “increased over time”.
